Biological target: T1, DC-SIGN (Homo sapiens, UniProt Q9NNX6)
T1 sequence (Q9NNX6 59-404 limits assumed): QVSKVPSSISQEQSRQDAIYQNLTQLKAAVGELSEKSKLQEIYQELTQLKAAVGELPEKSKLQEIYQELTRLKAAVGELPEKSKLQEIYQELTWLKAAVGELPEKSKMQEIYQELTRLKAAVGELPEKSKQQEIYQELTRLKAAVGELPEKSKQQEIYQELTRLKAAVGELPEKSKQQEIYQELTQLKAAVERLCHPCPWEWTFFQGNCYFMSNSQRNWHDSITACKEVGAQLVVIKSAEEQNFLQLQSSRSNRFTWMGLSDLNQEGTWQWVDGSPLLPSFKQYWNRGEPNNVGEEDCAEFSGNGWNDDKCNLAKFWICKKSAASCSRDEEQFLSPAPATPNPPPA
Format: binding

## CC(=O)N[C@@H]1C(O)O[C@H](CO)[C@@H](O)[C@@H]1O (stereo partly shown) [N-acetylmannosamine]
  IC50: 11.2 ± 0.7 mM
